Results from article PMC9863764, “Roles of Human Liver Cytochrome P450 Enzymes in Tenatoprazole Metabolism” (Pharmaceutics, 2022).
Several values for one entry are separate records, joined by “and”; a condition that tells them apart may be missing. Identical values can stand only once.

Assays:
Assay type in all cases: in vitro ADME
[1] = target: T1, CYP2E1 (Homo sapiens, UniProt P05181); assay: Tenatoprazole oxidation by recombinant CYP2E1; conditions: substrate tenatoprazole 0.10 mM, 0.20 μM CYP2E1; no apparent formation
T1 construct: made in house; host or cells: Escherichia coli (membrane fractions)
Experimental: (§1) Pooled liver microsomes from human samples were obtained from ThermoFisher Scientific (Waltham, MA, USA). Recombinant human P450s were heterologously expressed in Escherichia coli with a pCW vector containing human P450 cDNA (CYP 3A4, 2C9, 2C19, 1A2, 1B1, 2E1, 2D6, and 2A6) and rat NADPH-P450 reductase (CPR). Membrane fractions expressing both P450 and CPR of E. coli were prepared as described previously and were used for the catalytic activity assays.
(§2) The reaction mixture included 0.20 μM P450, 0.40 μM CPR, and tenatoprazole (0.10 mM) in 0.25 mL of 0.10 M potassium phosphate buffer (pH 7.4). The reaction was started by adding NGS and the incubation was continued for the indicated time at 37 °C. Incubation was then stopped by adding ice-chilled ethyl acetate (0.50 mL) and omeprazole (IS) was added to a final concentration of 20 μM. The mixtures were vortexed for 2 min, centrifuged at 1000× g for 20 min, and then the organic layer was taken for drying under nitrogen gas stream. The residues were dissolved in 180 μL of HPLC mobile phase and 30 μL was injected onto a Gemini C18 column (4.6 × 150 mm, 5 μm; Phenomenex, Torrance, CA, USA). The products formed were analyzed by HPLC at A302. The HPLC profile of the authentic chemicals (i.e., tenatoprazole, tenatoprazole sulfide, and their metabolites) were used to identify the major metabolites of tenatoprazole and tenatoprazole sulfide produced by the recombinant P450s.
(§3) Figure S6. HPLC analyses of the products derived from the oxidation of tenatoprazole catalyzed by recombinant human P450s. The reaction mixture included 0.20 μM P450, 0.40 μM CPR, and 0.10 mM tenatoprazole in 0.25 mL of potassium phosphate buffer (0.10 M, pH 7.4). The reaction was started by adding an NGS at 37 °C for 60 min. (A) CYP1A2; (B) CYP1B1; (C) CYP2A6; (D) CYP2C9; (E) CYP2D6; (F) CYP2E1. The arrows with solid and broken lines indicate the retention times of 5’-OH tenatoprazole (6.6 min) and 5’-OH tenatoprazole sulfide (8.4 min), respectively.
(§4) (1 picture or pasted object on this page, not shown here)

[2] = target: T2, CYP1B1 (Homo sapiens, UniProt Q16678); assay: Tenatoprazole oxidation by recombinant CYP1B1; conditions: substrate tenatoprazole 0.10 mM, 0.20 μM CYP1B1; no apparent formation
T2 construct: made in house; host or cells: Escherichia coli (membrane fractions)
T2 sequence (Q16678 1-543): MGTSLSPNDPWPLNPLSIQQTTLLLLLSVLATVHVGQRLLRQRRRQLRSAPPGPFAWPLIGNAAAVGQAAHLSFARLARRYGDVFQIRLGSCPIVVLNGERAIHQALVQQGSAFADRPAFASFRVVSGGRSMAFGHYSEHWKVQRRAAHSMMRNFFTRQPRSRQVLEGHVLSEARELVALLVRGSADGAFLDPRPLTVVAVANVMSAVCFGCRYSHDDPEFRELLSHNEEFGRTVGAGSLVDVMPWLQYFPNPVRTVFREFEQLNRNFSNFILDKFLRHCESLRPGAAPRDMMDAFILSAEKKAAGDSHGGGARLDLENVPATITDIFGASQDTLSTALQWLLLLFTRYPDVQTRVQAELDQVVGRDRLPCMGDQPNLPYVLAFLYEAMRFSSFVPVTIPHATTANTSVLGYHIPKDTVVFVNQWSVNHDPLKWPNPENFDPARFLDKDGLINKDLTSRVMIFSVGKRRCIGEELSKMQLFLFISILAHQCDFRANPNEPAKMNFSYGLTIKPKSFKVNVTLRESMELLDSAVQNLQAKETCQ
Experimental: as §1, §2, §3, §4

[3] = target: T3, human CYP3A4 (Homo sapiens, UniProt P08684); assay: Steady-state kinetics of tenatoprazole oxidation by recombinant CYP3A4; conditions: for kcat of product formation: substrate tenatoprazole (1–500 μM), recombinant CYP3A4 0.20 μM, 37 °C, 5 min, label = product formed
T3 construct: made in house; host or cells: Escherichia coli (membrane fractions)
Experimental: Pooled liver microsomes from human samples were obtained from ThermoFisher Scientific (Waltham, MA, USA). […] Membrane fractions expressing both P450 and CPR of E. coli were prepared as described previously and were used for the catalytic activity assays. […] The reaction was started by adding NGS and the incubation was continued for the indicated time at 37 °C. Incubation was then stopped by adding ice-chilled ethyl acetate (0.50 mL) and omeprazole (IS) was added to a final concentration of 20 μM. […] Phenomenex, Torrance, CA, USA). The products formed were analyzed by HPLC at […]. The HPLC profile of the authentic chemicals (i.e., tenatoprazole, tenatoprazole sulfide, and their metabolites) were used to identify the major metabolites of tenatoprazole and tenatoprazole sulfide produced by the recombinant P450s. […] The kinetic parameters (kcat and Km) were determined by using a Michaelis-Menten nonlinear regression analysis with GraphPad Prism (GraphPad Software, San Diego, CA, USA). To further characterize the nature of the metabolites, the reaction mixtures were additionally analyzed by a 6530 Quadrupole Time-of-Flight (QTOF) mass spectrometer (MS) (Agilent, Santa Clara, CA, USA) coupled with a 1290 Infinity ultra-performance liquid chromatography (UPLC) system (Agilent). […] The reaction was initiated by adding NGS at 37 °C. […] Then, the upper layer was transferred to a glass tube and dried under nitrogen stream. The residues were reconstituted in 0.30 mL acetonitrile, then 1 μL samples were injected into an LC-MS system. The analytical column was a Hypersil Gold C18 column (100 × 2.1 mm, 1.9 μm; ThermoFisher Scientific). […] A gradient program was used for HPLC separation, and the flow rate was 0.4 mL/min. […] The column and autosampler were kept at 35 °C and 4 °C, respectively, during analysis. Electrospray ionization was performed in the positive ion mode. The sheath gas flow rate was 8 L/min. The flow rate of drying gas was 12 L/min at 350 °C, and the nebulizer's temperature was set at 350 °C. The capillary voltage was 4500 V in the positive mode, and that of the fragmentor was 175 V. Data acquisition were done over a scan range from 50 m/z to 1000 m/z in the centroid mode. A reference compound (C18H18O6N3P3F24; [M+H]^+ = 922.0098) was used to correct all of the masses. Tandem mass spectrometry (MS/MS) data were acquired in profile mode via autoanalysis for structural characterization with 30 eV of the collision energy.

T3 sequence (P08684 whole entry): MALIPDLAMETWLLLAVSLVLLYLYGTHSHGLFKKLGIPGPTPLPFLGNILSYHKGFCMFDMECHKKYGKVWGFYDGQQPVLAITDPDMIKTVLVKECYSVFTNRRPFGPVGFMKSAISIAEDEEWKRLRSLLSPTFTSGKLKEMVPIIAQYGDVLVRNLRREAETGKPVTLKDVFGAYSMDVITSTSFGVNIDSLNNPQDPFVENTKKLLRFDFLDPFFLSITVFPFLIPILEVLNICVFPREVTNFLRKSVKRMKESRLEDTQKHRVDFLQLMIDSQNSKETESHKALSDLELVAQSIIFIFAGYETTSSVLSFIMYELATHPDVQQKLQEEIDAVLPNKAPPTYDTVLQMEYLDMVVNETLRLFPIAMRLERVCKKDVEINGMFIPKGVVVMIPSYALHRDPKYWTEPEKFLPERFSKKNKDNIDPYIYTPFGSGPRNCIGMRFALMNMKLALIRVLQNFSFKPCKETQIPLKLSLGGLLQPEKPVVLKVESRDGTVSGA
T1 sequence (P05181 whole entry): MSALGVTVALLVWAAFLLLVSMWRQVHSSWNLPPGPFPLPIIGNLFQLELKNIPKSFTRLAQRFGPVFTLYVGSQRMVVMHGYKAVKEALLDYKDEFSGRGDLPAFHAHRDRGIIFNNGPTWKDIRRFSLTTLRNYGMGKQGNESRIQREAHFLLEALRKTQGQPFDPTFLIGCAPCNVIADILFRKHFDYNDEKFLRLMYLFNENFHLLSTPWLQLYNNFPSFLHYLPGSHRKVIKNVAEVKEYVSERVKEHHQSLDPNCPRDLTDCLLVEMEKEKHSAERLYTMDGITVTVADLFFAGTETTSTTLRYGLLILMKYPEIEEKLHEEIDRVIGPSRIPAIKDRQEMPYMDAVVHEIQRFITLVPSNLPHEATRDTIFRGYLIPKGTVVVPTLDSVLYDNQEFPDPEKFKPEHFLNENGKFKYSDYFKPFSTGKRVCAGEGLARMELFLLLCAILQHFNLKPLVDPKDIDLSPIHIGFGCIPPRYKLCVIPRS

Row | Structure (SMILES) | formation rate of metabolite [1] | formation rate of metabolite [2] | fold higher Km of CYP3A4 than CYP2C19 ([3]; 5′-OH tenatoprazole formation from tenatoprazole) | kcat of product formation [3]
1 | COc1ccc2[nH]c([S+]([O-])Cc3ncc(CO)c(OC)c3C)nc2n1 (stereo not shown) [5′-OH tenatoprazole, 5′-hydroxy tenatoprazole] | < 0.05 nmol product/min/nmol P450 | < 0.05 nmol product/min/nmol P450 | 100 fold | 6.3 min⁻¹ and 6.3 ± 0.3 min⁻¹
2 | COc1ccc2[nH]c(S(=O)(=O)Cc3ncc(C)c(OC)c3C)nc2n1 [tenatoprazole sulfone] | < 0.05 nmol product/min/nmol P450 | < 0.05 nmol product/min/nmol P450 | – | 2.7 min⁻¹ and 2.7 ± 0.8 min⁻¹
